In patent US7977366B2, “Treating an inflammatory disorder or inhibiting respiratory burst in adherent neutrophils with chemical inhibitors of neutrophil activation” (Cornell Research Foundation, Inc., priority 2003, dated 2011):
Read-outs that look alike come from different tables or passages of the source.

Legend:
human neutrophils [1] = test: TNF-triggered H2O2 release (respiratory burst) by adherent human neutrophils; assay type: cell-based; conditions: for IC50: Homo sapiens, Neutrophil, TNF 100 ng/ml; for Concentration that consistently yielded over 95% inhibition on TNF triggered RB: empirically decided for each compound
Experimental: Contaminating erythrocytes were lysed by hypotonic shock for 45 seconds with 0.2% saline.
Briefly, 15,000 compounds were screened to identify specific inhibitors of TNF-triggered H2O2 release in human neutrophils. H2O2 release was measured as above except a few modifications to adapt to high throughput screening. […] Percent inhibition by each compound was calculated using the formula: […]
Briefly, 96-well flat-bottomed plates (Primaria, Falcon) were coated with 50 μl/well of FBS in 5% CO2 at 37° C. for at least 1 h and washed three times with 0.9% saline. Neutrophils (1.5×10^4) were added to triplicate wells containing 100 μl of reaction mixture (2.4 nm scopoletin, 0.5 μg horseradish peroxidase (HRP), and 1 mM NaN3) and stimulated with either buffer control, TNF (PreproTech, London, UK) or phorbol myristate acetate (PMA), each at 100 ng/ml. […] The supernatant from the H2O2 release assay with 1.5×10^4 neutrophils was used to measure degranulation using lactoferrin (LF) or myeloperoxidase (MPO) ELISA kit (Oxis International, Inc., Portland, Oreg.). Spontaneous cell death from the same supernatant was measured using Cytotoxicity Detection Kit (Roche Molecular Biochemicals, Nutley, N.J.). The total cell content of LF, MPO, and lactate dehydrogenase (LDH) was determined after lysing cells with 1% Triton X100. LDH is a cytosolic enzyme whose release indicates cell lysis, such that high release of LF or MPO in the face of low release of LDH is taken as a measure of degranulation.

Syk = test: TNF and adhesion triggered tyrosine phosphorylation of Syk in neutrophils (immunoprecipitation, western blot); assay type: cell-based, human; conditions: for TNF and adhesion triggered tyrosine phosphorylation (activation) of Syk: result in words; for inhibition of TNF and adhesion triggered tyrosine phosphorylation of Syk: moderately inhibited
Experimental: Tissue culture plates (Primaria, Falcon) were coated with 3 ml of FBS in 5% CO2 at 37° C. for at least 1 h and washed twice with 0.9% saline. Isolated human neutrophils (1.5×10^6) were added to each plate containing 4 ml of reaction mixture, incubated with each compound at 37° C. for 30 min, and stimulated with either buffer control or TNF (100 ng/ml). When cells were fully spread (20-40 min), they were treated with 5 mM diisopropylfluorophosphate to inhibit serine proteases and lysed with either 125 μl of SDS lysis buffer (10 mM Tris-HCl, pH 7.6, 150 mM NaCl, 1% SDS, 1 mM PMSF, 1 mM Na pyrophosphate, 1 mM NaF, 1 mM vanadate, 5 μg/ml each of aprotinin, leupeptin, chymostatin, pepstatin A) for western blot, or with 200 μl of non-denaturing modified RIPA buffer (10 mM Tris-HCl, pH 7.6, 150 mM NaCl, 1% Triton-X100, 1 mM PMSF, 1 mM Na pyrophosphate, 1 mM NaF, 1 mM vanadate, 5 μg/ml each of aprotinin, leupeptin, chymostatin, pepstatin A) for immunoprecipitation. The cell lysate was passed through a 26-gauge needle six times to shear DNA and centrifuged at 20,000×g for 15 min to remove cell debris and DNA. The protein concentration was determined using a Bio-Rad (Indianapolis, Ind.) kit. Cell lysates were separated by SDS-PAGE and transferred electrophoretically to nitrocellulose membranes (Schleicher & Schuell, Inc., Keene, N.H.). The membranes were incubated with 5% milk in TBST ([…], 0.1% Tween-20) for 1 h at 37° C. and then overnight at 4° C. with anti-phosphotyrosine antibody (Santa Cruz), anti-Syk antibody (Transduction Laboratories, Newington, N.H.), anti-phospho-specific Pyk2 antibodies (Biosource International, Camarillo, Calif.), or anti-Pyk2 antibody (Upstate Biotech, Waltham, Mass.). Membranes were washed with TBST and incubated with secondary Ab conjugated with HRP in 5% milk in TBST for 1 h at 37° C. After further washing with TBST, bound antibody was detected by enhanced chemiluminescence (Pierce ECL, Amersham Pharmacia, Piscataway, N.J.).
Also investigated was the impact of the compounds of the present invention on several known tyrosine kinases such as Src, Syk, and Pyk2, which are shown to be critical in the signaling pathways triggered by TNF. Kinase assays were performed according to the instructions provided by United Bioinformatica, Inc. ((UBI) Calgary, AB, Canada), from which recombinant Src and Syk were purchased. Briefly, after incubation of recombinant Src (40 U) (UBI, Calgary, AB, Canada) with each compound at RT for 30 min, Src kinase reaction buffer (100 mM Tris-HCl, pH 7.2, 125 mM MgCl2, 25 mM MnCl2, 2 mM EGTA, 0.25 mM NaOV4, 2 mM DTT), Src kinase substrate peptide (375 μM, UBI, Calgary, AB, Canada), and [γ-32P]ATP were added to the enzyme. After incubation at 30° C. for 10 min, the reaction was stopped by addition of 40% trichloroacetic acid (TCA). Samples were transferred to a P81 paper square (UBI, Calgary, AB, Canada), the unincorporated radioactivity was washed off with 0.75% phosphoric acid and acetone, and the assay square was placed in a scintillation counter. For Syk kinase assay, reaction buffer contained 50 mM Tris-HCl, pH 7.5, 0.1 mM EGTA, 0.1 mM NaOV4, 0.15 M 2-mercaptoethanol and substrate was poly (Glu-4-Tyr)(4:1) (CSI Biointernational, France). […] It appears that these compounds block—partially by Comp I and II and completely by Comp III and IV—upstream signaling events for Syk activation rather than directly blocking Syk activity.

human neutrophils [2] = test: Reversibility of inhibition of TNF triggered respiratory burst after washing; assay type: cell-based; conditions: washed twice with cold KRPG before TNF 100 ng/ml
Experimental: Neutrophils were incubated with test compounds I-V or DMSO at 37° C. for 30 min in FBS coated tubes (Falcon, Cat. Number 352063), washed twice with cold KRPG, and plated in 96 well plates before stimulation with TNF (100 ng/ml) or an equivalent volume of KRPG buffer as a control. On a separate plate, compounds were added back to the neutrophils that were washed off compounds, and cells were stimulated to ensure neutrophils' capacity to respond. Neutrophils incubated with each compound without washing were also stimulated for comparison.

human neutrophils [3] = test: Killing of bacteria by neutrophils; assay type: cell-based
[4] = 1.5 h, H2O2 release at 90 min, read-out: IC50, TNF triggered H2O2 release

IC50 (human neutrophils [1]; range given with mixed units nM and μM, read-out: IC50, TNF triggered H2O2 release (very variable))	IC50 (human neutrophils [1]; [4])	Compound	Concentration that consistently yielded over 95% inhibition on TNF triggered RB (human neutrophils [1])	TNF and adhesion triggered tyrosine phosphorylation (activation) of Syk (Syk)	inhibition of TNF and adhesion triggered tyrosine phosphorylation of Syk (Syk)	effect on TNF triggered H2O2 release (respiratory burst) (human neutrophils [1]; result in words)	reversibility of inhibition of TNF triggered respiratory burst (human neutrophils [2])	bacterial killing ability of PMNs (general statement) (human neutrophils [3])
3 to 2000 nM	–	O=C(CSc1nc2ccccc2s1)N/N=C/c1cc([N+](=O)[O-])ccc1O [Comp IV, (Benzothiazol-2-ylsulfanyl)-acetic acid (2-hydroxy-5-nitro-benzylidene) -hydrazide]	10 µM	completely inhibited	–	–	–	–
–	~180 nM	Cc1nc(N/N=C/c2ccccc2O)c2c3c(sc2n1)CCCC3 [Comp I, 2-[(2-Methyl-5,6,7,8-tetrahydro-benzo[4,5]thieno [2,3-a]pyrimidin-4-yl)-hydrazonomethyl]-phenol]	2 µM	–	about 50%	–	–	–
–	2500 ± 1500 nM	C(=N\Nc1ncnc2sc3c(c12)CCCC3)/c1cccnc1 [Comp III, N-Pyridin-3-ylmethylene-N-(5,6,7,8-tetrahydro-benzo[4,5] [2,3-a]pyrimidin-4-yl)-hydrazine]	5 µM	completely inhibited	–	–	–	–

Compound	IC50 (human neutrophils [1]; range given with mixed units nM and μM, read-out: IC50, TNF triggered H2O2 release (very variable))	IC50 (human neutrophils [1]; [4])	Concentration that consistently yielded over 95% inhibition on TNF triggered RB (human neutrophils [1])	TNF and adhesion triggered tyrosine phosphorylation (activation) of Syk (Syk)	inhibition of TNF and adhesion triggered tyrosine phosphorylation of Syk (Syk)	effect on TNF triggered H2O2 release (respiratory burst) (human neutrophils [1]; result in words)	reversibility of inhibition of TNF triggered respiratory burst (human neutrophils [2])	bacterial killing ability of PMNs (general statement) (human neutrophils [3])
O=C1CC(c2ccccc2)=NN1c1cccc(Cl)c1 [Comp II, 2-(3-Chloro-phenyl)-5-phenyl-2,4-dihydro-pyrazol-3-one]	–	1600 ± 400 nM	5 µM	did not block	about 50%	inhibited	greatest reversibility	sparing
